# Test results from patent publication US20240092784A1, “CONDENSED HETEROCYCLIC COMPOUND” (NISSAN CHEMICAL CORPORATION, priority 2020, published 2024).
# Molecular target: human SPR (Homo sapiens (Human), UniProt P35270)
# Assay: Evaluation Example 2: Measurement of human SPR inhibitory activity (seven concentrations, sepiapterin absorbance at 420 nm)
# Type: biochemical
# Conditions: Evaluation Example 2, seven concentrations 0.14 nM to 100 nM, 240 minutes at room temperature, read-out: IC50
# Summary of the method: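 Reactions ran 240 min at room temperature in 100 mM Tris-HCl pH 7.5 with 0.01% BSA. They contained tag-cleaved, E. coli-expressed full-length human SPR (diluted to 150 ng/mL), seven compound concentrations from 0.14 to 100 nM, and sepiapterin/NADPH added as a 120 μM/160 μM solution. Inhibition was calculated from sepiapterin absorbance at 420 nm.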
# Sequence of human SPR (P35270 whole entry): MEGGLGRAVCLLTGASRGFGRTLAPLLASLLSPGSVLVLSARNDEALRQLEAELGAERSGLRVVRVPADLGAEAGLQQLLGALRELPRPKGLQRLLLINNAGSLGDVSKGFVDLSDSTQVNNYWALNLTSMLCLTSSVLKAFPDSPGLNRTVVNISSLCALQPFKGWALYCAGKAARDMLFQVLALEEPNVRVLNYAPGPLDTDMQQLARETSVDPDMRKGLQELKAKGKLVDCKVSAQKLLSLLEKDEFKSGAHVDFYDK
row,SMILES,IC50 [pM]
1,"CC(C)Cn1c(=O)c(C(=O)NC2CC2)c(O)n2ncc(/C=C/C(=O)N3CCC(F)CC3)c12 [compound 463, (E)-N-Cyclopropyl-3-(3-(4-fluoropiperidin-1-yl)-3-oxoprop-1-en-1-yl)-7-hydroxy-4-isobutyl-5-oxo-4,5-dihydropyrazolo[1,5-a]pyrimidine-6-carboxamide]",970
2,"CC(C)Cn1c(=O)c(C(=O)NC2CC2)c(O)n2ncc(/C=C/C(=O)N3CCC(F)(F)CC3)c12 [compound 464, (E)-N-Cyclopropyl-3-(3-(4,4-difluoropiperidin-1-yl)-3-oxoprop-1-en-1-yl)-7-hydroxy-4-isobutyl-5-oxo-4,5-dihydropyrazolo[1,5-a]pyrimidine-6-carboxamide]",800
3,"CC(C)Cn1c(=O)c(C(=O)NC2CC2)c(O)n2ncc(/C=C/C(=O)N3CCC(OC(F)(F)F)CC3)c12 [compound 465, (E)-N-Cyclopropyl-7-hydroxy-4-isobutyl-5-oxo-3-(3-oxo-3-(4-(trifluoromethoxy)piperidin-1-yl)prop-1-en-1-yl)-4,5-dihydropyrazolo[1,5-a]pyrimidine-6-carboxamide]",1760
4,"CC(C)Cn1c(=O)c(C(=O)NC2CC2)c(O)n2ncc(/C=C/C(=O)N3CCC(C(F)F)CC3)c12 [compound 466, (E)-N-Cyclopropyl-3-(3-(4-(difluoromethyl)piperidin-1-yl)-3-oxoprop-1-en-1-yl)-7-hydroxy-4-isobutyl-5-oxo-4,5-dihydropyrazolo[1,5-a]pyrimidine-6-carboxamide]",1270
5,"CC(C)Cn1c(=O)c(C(=O)NC2CC2)c(O)n2ncc(/C=C/C(=O)N3CCC(C)(O)CC3)c12 [compound 467, (E)-N-Cyclopropyl-7-hydroxy-3-(3-(4-hydroxy-4-methylpiperidin-1-yl)-3-oxoprop-1-en-1-yl)-4-isobutyl-5-oxo-4,5-dihydropyrazolo[1,5-a]pyrimidine-6-carboxamide]",790
6,CC(C)Cn1c(=O)c(C(=O)NC2CC2)c(O)n2ncc(/C=C/C(=O)N3CCC(C#N)CC3)c12 [compound 468],840
7,CC(C)Cn1c(=O)c(C(=O)NC2CC2)c(O)n2ncc(/C=C/C(=O)N3CCC(C(C)(F)F)CC3)c12 [compound 469],890
8,COC1(C)CCN(C(=O)/C=C/c2cnn3c(O)c(C(=O)NC4CC4)c(=O)n(CC(C)C)c23)CC1 [compound 470],880
9,"CC(C)Cn1c(=O)c(C(=O)NC2CC2)c(O)n2ncc(/C=C/C(=O)N3CCN(C4CC4)CC3)c12 [compound 471, (E)-N-Cyclopropyl-3-(3-(4-cyclopropylpiperazin-1-yl)-3-oxoprop-1-en-1-yl)-7-hydroxy-4-isobutyl-5-oxo-4,5-dihydropyrazolo[1,5-a]pyrimidine-6-carboxamide]",1180
10,"CC(C)Cn1c(=O)c(C(=O)NC2CC2)c(O)n2ncc(/C=C/C(=O)N3CCN(C4CCC4)CC3)c12 [compound 472, (E)-3-(3-(4-Cyclobutylpiperazin-1-yl)-3-oxoprop-1-en-1-yl)-N-cyclopropyl-7-hydroxy-4-isobutyl-5-oxo-4,5-dihydropyrazolo[1,5-a]pyrimidine-6-carboxamide]",1120
11,"CC(C)Cn1c(=O)c(C(=O)NC2CC2)c(O)n2ncc(/C=C/C(=O)N3CCC(C(C)C)CC3)c12 [compound 473, (E)-N-Cyclopropyl-7-hydroxy-4-isobutyl-3-(3-(4-isopropylpiperidin-1-yl)-3-oxoprop-1-en-1-yl)-5-oxo-4,5-dihydropyrazolo[1,5-a]pyrimidine-6-carboxamide]",2110
12,"CC(C)Cn1c(=O)c(C(=O)NC2CC2)c(O)n2ncc(/C=C/C(=O)N3CCC(C(C)(C)O)CC3)c12 [compound 474, (E)-N-Cyclopropyl-7-hydroxy-3-(3-(4-(2-hydroxypropan-2-yl)piperidin-1-yl)-3-oxoprop-1-en-1-yl)-4-isobutyl-5-oxo-4,5-dihydropyrazolo[1,5-a]pyrimidine-6-carboxamide]",880
